From patent US9526785B2, “Pharmaceuticals for oral delivery” (Enteris BioPharma, Inc., priority 2013, dated 2016)
Like-named read-outs stand apart in the source and are kept apart here.

Assay: Tigecycline plasma PK and % F after PO enteric-coated capsule in dogs
Format: in vivo, Beagle dogs
Details: for concentration at 2 hr / concentration at 3 hr / concentration at 4 hr / concentration at 5 hr / concentration at 6 hr / concentration at 8 hr / concentration at 10 hr / concentration at 0 min / concentration at 0.3 min / concentration at 0.7 min / concentration at 1 min / concentration at […] / concentration at 2 min / concentration at 3 min / concentration at 4 min / concentration at 5 min / concentration at 6 min / concentration at 8 min / concentration at 10 min / concentration at 24 min / concentration at 24 hr / Cmax / AUC(0-t) / bioavailability / Tmax: female, beagle, dog, plasma, po; for concentration at 2 hr / concentration at 3 hr / concentration at 4 hr / concentration at 5 hr / concentration at 6 hr / concentration at 8 hr / concentration at 10 hr / concentration at 0 min / concentration at 0.3 min / concentration at 0.7 min / concentration at 1 min / concentration at […] / concentration at 2 min / concentration at 3 min / concentration at 4 min / concentration at 5 min / concentration at 6 min / concentration at 8 min / concentration at 10 min / concentration at 24 min / concentration at 24 hr: Tigecycline Plasma Concentration; for concentration at 2 hr / concentration at 3 hr / concentration at 4 hr / concentration at 5 hr / concentration at 6 hr / concentration at 8 hr / concentration at 10 hr / concentration at 24 hr: PO 30 mg unformulated enteric-coated capsule; for concentration at 0 min: Time (min) 0.0; for concentration at 0.3 min: Time (min) 0.3; for concentration at 0.7 min: Time (min) 0.7; for concentration at 1 min: Time (min) 1.0; for concentration at 2 min: Time (min) 2.0; for concentration at 3 min: Time (min) 3.0; for concentration at 4 min: Time (min) 4.0; for concentration at 5 min: Time (min) 5.0; for concentration at 6 min: Time (min) 6.0; for concentration at 8 min: Time (min) 8.0; for concentration at 10 min: Time (min) 10.0; for concentration at 24 min: Time (min) 24.0; for Predicted AUC(0-t), % Difference / Predicted Mean Cmax, % Difference: observed vs predicted from 15 mg results; for Predicted AUC(0-t) / Predicted Mean Cmax: predicted from 15 mg results
Method: Adult beagle dogs weighing approximately 9 to 15 kg were used in the study. […] Room temperature was set to be maintained between approximately 20±5° C. Relative humidity was monitored but not controlled.
TEKLAD™ Certified Canine Diet was provided once daily in amounts (˜400 grams) appropriate for the size and age of the animals. Tap water was available ad libitum via automatic watering device or water bowls.
Oral dosing of enteric-coated capsules was accomplished by administering them to the back of the dog's mouth, followed by a chase of 5 mL water to ensure swallowing.
Water was provided ad libitum. […] Subsequently, each group of animals was dosed based on the protocol, i.e. either IV, or PO by capsule.
Minocycline (VWR international) was used as an internal standard. Sample processing/clean-up of plasma samples was carried out offline by protein precipitation with acidified acetonitrile using 0.5% trifluoroacetic acid (TFA).
The HPLC system consisted of Shimadzu SIL-HTc HPLC system equipped with dual Shimadzu LC-10ADvp isopumps, a Shimadzu CTO-10ASvp column temperature controller and a Shimadzu SPD-10Avp variable wavelength detector. […] Mobile phase A consisted of 23 mM phosphate buffer pH 2.5 with 4 mM 1-octanesulfonic acid, while mobile phase B consisting of 90% acetonitrile, 10% water, with 2 mM 1-octanesulfonic acid. […] The total runtime was 18 minutes per sample. The mobile phase flow rate was 1.2 mL/min. Detection was performed using the SPD-10Avp variable wavelength detector set at 350 nm, with a sensitivity of 0.001 aufs.
The samples were then centrifuged under refrigeration at 13 k rpm for 5 minutes. The supernatant was taken and the liquid removed to dryness under nitrogen in a turbovap. The dried extract was reconstituted in 60 μL of mobile phase A and the suspension was further centrifuged at 5 k rpm for 5 minutes to pellet any insoluble matter. The resulting supernatant was then injected onto the LC.
The unknown concentration in dog plasma samples was determined by interpolation of the peak area ratios of analyte:internal standard versus the ratio of their nominal concentrations into the regression line obtained from calibration standards spiked in pooled dog plasma. No regression weighting was used for the calculations. […] The calibration curve covered the range of 0.05 μg/mL to 5 μg/mL. […]
The capsules were enterically coated using a standard preclinical protocol to 10% weight gain. Two studies were conducted.

[1] = 30 mg, PO 30 mg enteric-coated capsule with 500 mg CA and 100 mg LLC, SC430, individual dogs
[2] = 30 mg, PO 30 mg enteric-coated capsule with 500 mg CA and 100 mg LLC, SC430, mean
[3] = 45 mg, PO 45 mg enteric-coated capsule with 500 mg CA and 100 mg LLC, SC430, individual dogs
[4] = 45 mg, PO 45 mg enteric-coated capsule with 500 mg CA and 100 mg LLC, SC430, mean

## CN(C)c1cc(NC(=O)CNC(C)(C)C)c(O)c2c1C[C@H]1C[C@H]3[C@H](N(C)C)C(O)=C(C(N)=O)C(=O)[C@@]3(O)C(O)=C1C2=O [Tigecycline]
30 mg, SC430, individual dogs
  concentration at 2 hr: 0 ng/mL
  concentration at 3 hr: 0 ng/mL
  concentration at 4 hr: 0 ng/mL
  concentration at 5 hr: 0 ng/mL
  concentration at 6 hr: 0 ng/mL
  concentration at 8 hr: 0 ng/mL
  concentration at 10 hr: 0 ng/mL
  concentration at 24 hr: 0 ng/mL
30 mg, SC430, mean
  concentration at 2 hr: 0 ng/mL
  concentration at 3 hr: 0 ng/mL
  concentration at 4 hr: 0 ng/mL
  concentration at 5 hr: 0 ng/mL
  concentration at 6 hr: 0 ng/mL
  concentration at 8 hr: 0 ng/mL
  concentration at 10 hr: 0 ng/mL
  concentration at 24 hr: 0 ng/mL
[1]
  concentration at 0 min: 0 ng/mL
  concentration at 0.3 min: 0 ng/mL
  concentration at 24 min: 0 ng/mL
[2]
  concentration at 0 min: 0 ng/mL
  concentration at 0.3 min: 0 ng/mL
  concentration at 0.7 min: 26.4 ng/mL
  concentration at 1 min: 49 ng/mL
  concentration at 2 min: 83.5 ng/mL
  concentration at 3 min: 49.9 ng/mL
  concentration at 4 min: 36.6 ng/mL
  concentration at 5 min: 31.8 ng/mL
  concentration at 6 min: 21.2 ng/mL
  concentration at 8 min: 7.27 ng/mL
  concentration at 10 min: 2.58 ng/mL
  concentration at 24 min: 0 ng/mL
30 mg, Time (min) 1.3, PO 30 mg enteric-coated capsule with 500 mg CA and 100 mg LLC, SC430, mean
  concentration at […]: 51.2 ng/mL
30 mg, Time (min) 1.7, PO 30 mg enteric-coated capsule with 500 mg CA and 100 mg LLC, SC430, mean
  concentration at […]: 63.6 ng/mL
30 mg, Time (min) 2.3, PO 30 mg enteric-coated capsule with 500 mg CA and 100 mg LLC, SC430, mean
  concentration at […]: 72.1 ng/mL
30 mg, Time (min) 2.7, PO 30 mg enteric-coated capsule with 500 mg CA and 100 mg LLC, SC430, mean
  concentration at […]: 59.1 ng/mL
30 mg, Time (min) 3.3, PO 30 mg enteric-coated capsule with 500 mg CA and 100 mg LLC, SC430, mean
  concentration at […]: 42.4 ng/mL
30 mg, Time (min) 3.7, PO 30 mg enteric-coated capsule with 500 mg CA and 100 mg LLC, SC430, mean
  concentration at […]: 40.6 ng/mL
30 mg, Time (min) 4.5, PO 30 mg enteric-coated capsule with 500 mg CA and 100 mg LLC, SC430, mean
  concentration at […]: 33.5 ng/mL
30 mg, Time (min) 5.5, PO 30 mg enteric-coated capsule with 500 mg CA and 100 mg LLC, SC430, mean
  concentration at […]: 37.9 ng/mL
30 mg, target dose 30 mg, enterically coated capsule, excluding animal 5256, read-out: Observed Mean Cmax
  Cmax: 121 ng/mL
30 mg, target dose 30 mg, enterically coated capsule, time scale adjusted to 4 hours, excluding animal 5256, read-out: Observed AUC(0-t)
  AUC(0-t): 214 ng·h/mL
30 mg, read-out: % F
  bioavailability: 14.9%
30 mg, read-out: AUC(0-t)
  AUC(0-t): 367 ng·h/mL
30 mg, read-out: Cmax
  Cmax: 121 ng/mL
45 mg, 45 mg Formulated (500 mg CA, 100 mg LLC) enteric coated capsule, Study 2 (SC430), mean (% CV), read-out: % F
  bioavailability: 15.5%
45 mg, 45 mg Formulated (500 mg CA, 100 mg LLC) enteric coated capsule, Study 2 (SC430), mean (% CV), read-out: AUC(0-t)
  AUC(0-t): 574 ng·h/mL
45 mg, 45 mg Formulated (500 mg CA, 100 mg LLC) enteric coated capsule, Study 2 (SC430), mean (% CV), read-out: Cmax
  Cmax: 177 ng/mL
45 mg, 45 mg Formulated (500 mg CA, 100 mg LLC) enteric coated capsule, Study 2 (SC430), mean (% CV), read-out: Tmax (converted)
  Tmax: 1.67 h
45 mg, PO 45 mg enteric-coated capsule with 500 mg CA and 100 mg LLC (SC430), read-out: AUC(0-t), mean
  AUC(0-t): 574 ng·h/mL
45 mg, PO 45 mg enteric-coated capsule with 500 mg CA and 100 mg LLC (SC430), read-out: Cmax, mean
  Cmax: 177 ng/mL
45 mg, PO 45 mg enteric-coated capsule with 500 mg CA and 100 mg LLC (SC430), read-out: absolute % F, mean
  bioavailability: 15.5%
45 mg, PO 45 mg enteric-coated capsule with 500 mg CA and 100 mg LLC ([…]), SC430, mean, read-out: AUC(0-t)
  AUC(0-t): 574 ng·h/mL
45 mg, PO 45 mg enteric-coated capsule with 500 mg CA and 100 mg LLC ([…]), SC430, mean, read-out: Cmax
  Cmax: 177 ng/mL
45 mg, PO 45 mg enteric-coated capsule with 500 mg CA and 100 mg LLC ([…]), SC430, mean, read-out: Tmax (converted)
  Tmax: 1.67 h
45 mg, PO 45 mg enteric-coated capsule with 500 mg CA and 100 mg LLC, SC430, calculated from IV PK data of SC431, mean, read-out: % F
  bioavailability: 15.5%
45 mg, Study 2 (SC430), 45 mg Formulated enteric coated capsule (500 mg citric acid, 100 mg LLC), oral, dogs, N=5, mean (% CV), based on that study's IV arm, read-out: % F
  bioavailability: 15.5%
45 mg, Study 2 (SC430), 45 mg Formulated enteric coated capsule (500 mg citric acid, 100 mg LLC), oral, dogs, N=5, mean (% CV), read-out: Tmax (converted)
  Tmax: 1.67 h
45 mg, Study 2 (SC430), 45 mg Formulated enteric coated capsule (500 mg citric acid, 100 mg LLC), oral, dogs, N=5, mean (% CV), sampling 24 h, read-out: AUC(0-t)
  AUC(0-t): 574 ng·h/mL
45 mg, Study 2 (SC430), 45 mg Formulated enteric coated capsule (500 mg citric acid, 100 mg LLC), oral, dogs, N=5, mean (% CV), sampling 24 h, read-out: Cmax
  Cmax: 177 ng/mL
[3]
  concentration at 0 min: 0 ng/mL
  concentration at 0.3 min: 0 ng/mL
  concentration at 0.7 min: 0 ng/mL
  concentration at 24 min: 0 ng/mL
[4]
  concentration at 0 min: 0 ng/mL
  concentration at 0.3 min: 0 ng/mL
  concentration at 0.7 min: 0 ng/mL
  concentration at 1 min: 56.4 ng/mL
  concentration at 2 min: 144 ng/mL
  concentration at 3 min: 76.5 ng/mL
  concentration at 4 min: 51.7 ng/mL
  concentration at 5 min: 50.6 ng/mL
  concentration at 6 min: 35.2 ng/mL
  concentration at 8 min: 22.9 ng/mL
  concentration at 10 min: 16.8 ng/mL
  concentration at 24 min: 0 ng/mL
45 mg, Time (min) 1.3, PO 45 mg enteric-coated capsule with 500 mg CA and 100 mg LLC, SC430, mean
  concentration at […]: 58.3 ng/mL
45 mg, Time (min) 1.7, PO 45 mg enteric-coated capsule with 500 mg CA and 100 mg LLC, SC430, mean
  concentration at […]: 101 ng/mL
45 mg, Time (min) 2.3, PO 45 mg enteric-coated capsule with 500 mg CA and 100 mg LLC, SC430, mean
  concentration at […]: 108 ng/mL
45 mg, Time (min) 2.7, PO 45 mg enteric-coated capsule with 500 mg CA and 100 mg LLC, SC430, mean
  concentration at […]: 98.6 ng/mL
45 mg, Time (min) 3.3, PO 45 mg enteric-coated capsule with 500 mg CA and 100 mg LLC, SC430, mean
  concentration at […]: 68.7 ng/mL
45 mg, Time (min) 3.7, PO 45 mg enteric-coated capsule with 500 mg CA and 100 mg LLC, SC430, mean
  concentration at […]: 62 ng/mL
45 mg, Time (min) 4.5, PO 45 mg enteric-coated capsule with 500 mg CA and 100 mg LLC, SC430, mean
  concentration at […]: 48.9 ng/mL
45 mg, Time (min) 5.5, PO 45 mg enteric-coated capsule with 500 mg CA and 100 mg LLC, SC430, mean
  concentration at […]: 42.5 ng/mL
45 mg, target dose 45 mg, enterically coated capsule, read-out: Observed Mean Cmax
  Cmax: 177 ng/mL
45 mg, target dose 45 mg, enterically coated capsule, time scale adjusted to 4 hours, read-out: Observed AUC(0-t)
  AUC(0-t): 266 ng·h/mL
All studied oral formulations, read-out: Tmax, mean (converted)
  Tmax: ~1.67 h
Target dose 30 mg
  Predicted AUC(0-t), % Difference: −23.9%
  Predicted Mean Cmax, % Difference: −24.8%
  Predicted AUC(0-t): 265 ng·h/mL
  Predicted Mean Cmax: 151 ng/mL
Target dose 45 mg
  Predicted AUC(0-t), % Difference: −49.4%
  Predicted Mean Cmax, % Difference: −28.0%
  Predicted AUC(0-t): 398 ng·h/mL
  Predicted Mean Cmax: 226 ng/mL
